Experimental data: patent US20230310392A1, “COMPOSITIONS AND METHODS FOR THE TREATMENT OF EYE CONDITIONS” (Lenz Therapeutics, Inc., priority 2021, published 2023)
Several values for one entry are separate records, joined by “and”; a condition that tells them apart may be missing. Identical values can stand only once.

How the values were obtained:
[1] = system: emmetrope over the age of 45; experiment: Miotic agent with or without tropicamide and carrier: near and distance vision of an emmetrope over the age of 45 (FIG. 2); format: in vivo, human
Excerpt: Subject is an emmetrope over the age of 45 with a baseline near vision of 20.100 and baseline distance vision of 20.20. […] […] A proper drug carrier can also have a beneficial effect.

[2] = system: pupil; experiment: Duration of miosis of muscarinic agonist with brimonidine (description); format: in vivo, human
Experimental: It is further observed that concentration of brimonidine above 0.15% w/v causes significant trigger of the alpha 1 receptor leading to ischemia and rebound redness, which neutralizes the benefit of the prolonged duration at concentrations from about 0.07% to about 0.15% w/v brimonidine.
Another surprising discovery of the present invention, is that when the pH of a composition comprising a muscarinic agonist and brimonidine is below about 6.0 the duration of miosis is prolonged up to 14 hours.
In a still further embodiment lower pH is virtually found to cause the formulation to remain on the ocular surface longer, and therefore provide more sustained microvessel constriction and reduced egress of active ingredients.

[3] = system: presbyopic subject; experiment: 1.75% aceclidine in saline, LogMAR visual acuity of a presbyopic subject (Example 13); format: in vivo, human
Experimental: A 1.75% aceclidine in saline solution was formulated. One drop was instilled into each eye of a presbyopic subject. The visual acuity of the subject was tested both before and after instillation using a LogMAR chart.

[4] = system: presbyopic subjects; experiment: Effect of aceclidine compositions on near and distance vision of presbyopic subjects aged 47 to 67 (Example 1); format: in vivo, human; details: for Effect: duration of effect; for Post Gtt 15″ L Post Dist: left eye distance vision; for Post Gtt 15″ L Post Near: left eye near vision; for Post Gtt 15″ R Post Dist: right eye distance vision; for Post Gtt 15″ R Post Near: right eye near vision
Experimental: As aceclidine is an […], the clinical effectiveness may vary with different ratios. For the present studies a nearly exact 50:50 ratio of stereoisomers was measured as best determined by polarimetry.
After administration of the composition all subjects experienced an improvement in their near vision that lasted from 7 to 12 hours.

[5] = system: presbyopic patient; experiment: Compositions containing little or no cycloplegic agent: reading vs baseline at 40 cm, duration, comfort, efficacy index (Example 7); format: in vivo, human; details: 1.75% aceclidine, 2.5% mannitol, 0.01% tropicamide, 5% polysorbate 80, no viscosity agent
Excerpt: Aceclidine alone causes incidence migraine-like severe ciliary spasm (brow ache) and myopic blur. These effects are inversely correlated to age with subjects age 40 reporting the highest incidence and subject age 60+ reporting the lowest incidence. The addition of a cycloplegic agent reduces ciliary spasms and attendant brow ache, migranious headache, squeezing pressure around eyes or other symptoms of ciliary spasms. […] The addition of 2.5% w/v mannitol however does reduce the myopic effect of aceclidine. Increasing the aceclidine concentration overcomes this reduction in myopic effect seen with the addition of mannitol. […] Even more surprising, the concentration of the cycloplegic agent can be reduced or even eliminated in the presence of mannitol without an increase in ciliary spasm. […]
Further and unexpectedly, the addition of a nonionic surfactant increases both the quantitative measure of near vision improvement and the duration. […]
In brief, the score is calculated by multiplying the lines of improvement in near visual acuity by the number of hours the improvement lasts. […]

[6] = system: subjects; experiment: Modulation of aceclidine concentration in a preferred embodiment: stinging, redness, comfort, depth of focus (Example 2); format: in vivo, human
Experimental: Preferred embodiment: • Aceclidine 1.35% - 1.55% w/v; • Polyoxyl 40 stearate 5.5% w/v; • NaCl 0.037% w/v; • a viscosity agent, preferably CMC 0.80% w/v or an amount of Carbopol® 934 or 940 sufficient to achieve a viscosity of from about 5 to about 35 cps upon topical instillation, such as Carbopol® 940 at a concentration from about 0.09% to about 1.0% w/v; • BAK 0.015% w/v; and • a phosphate, citrate, citrophosphate, or acetate buffer from about 3 to about 10 mM, wherein the pH is from about 4.75 to about 6.0.
For 1.35% w/v aceclidine - • Stinging on topical instillation 0.25 / 4.0 (lasting about 2-5 seconds); • Induced redness at 10 minutes: 1.0 to 1.5/4.0; • Induced redness at 30 minutes: 0.0 to 0.25 / 4.0; • Comfort: very high. • Wetting: very high, the eye maintaining sensation of improved wetting for most of a 24-hour period after a single topical instillation. • Depth of Focus distance: excellent. • Depth of Focus near: excellent.
In testing the above formulations on several subjects, it was discovered that there is a slight range in clinical effect depending on the concentration of aceclidine, where 1.35% - 1.55% w/v aceclidine is preferred, but for which 1.35% w/v and 1.45% w/v confer the desired benefits on most subjects.

[7] = Stability of aceclidine in solution at 25° C. and 4° C. by HPLC (Example 6); format: physicochemical
Experimental: 20 samples of the above composition were divided evenly and stored at 25° C. and 4° C. Prior to storage, initial concentrations of aceclidine were measured using […] (“HPLC”). The amount of aceclidine in each solution was calculated by the area under the principal peak compared to a reference solution of aceclidine. Samples were then subject to storage for 3 months. Aceclidine measurements were taken at 1, 2 and 3 months.

[8] = system: patients; details: cited from earlier work
[9] = system: subject; details: in vivo
Excerpt: The subject independently instilled 2 drops of the above compositions in each eye and the excess wiped from lids and lashes.
Stinging and Redness are based on a scale of 0 to 4 with 0 being none and 4 being the most severe.

[10] = aceclidine 1.1% composition with 0.125% w/v tropicamide
[11] = aceclidine 1.5% composition, object at 15 inches

With CC(=O)OC1CN2CCC1CC2 (racemic) [aceclidine] the Distance vision ([1]; 1.55% w/v aceclidine in saline) was “without any effect on the baseline distance vision”, the Near vision ([1]; 1.55% w/v aceclidine in saline) was 20.40 and the “Time period of near vision improvement” value ([1]; 1.55% w/v aceclidine in saline) was 6 h. For the same molecule, the Near vision ([1]; aceclidine in carrier: 5.5% HPβCD, 0.75% CMC, 0.25% NaCl, 0.01% BAK) was less than 20.20, the Near vision ([1]; aceclidine in the carrier with 0.042% w/v tropicamide) was 20.15 and the “Duration of miosis / efficacy for near depth of field improvement” value ([2]; aceclidine in a preferred vehicle, pupil sizes of 1.5 to 2.0 mm) was 6 to 7 h. The Duration of miosis ([2]; with the addition of brimonidine at 0.07% to 0.08%) was 10 to 12 h, the “LogMAR score at 1-meter distance after instillation” value ([3]; 1.75% aceclidine in saline, one drop each eye) was -0.12 LogMAR and the “LogMAR score at 45 centimeters distance after instillation” value ([3]; 1.75% aceclidine in saline, one drop each eye, 0.50 prior to instillation) was 0.22 LogMAR. For the same molecule, the “Time at which noticeable degradation in reading distance acuity began” value ([3]; post instillation) was 4 h, the “Time improved reading distance acuity was maintained” value ([3]; post instillation) was 3.5 h and the “Effect” value [4, 10] was 12.00 h and 7.00 h. The “Post Gtt 15″ L Post Dist” value [4, 10] was 20.15 and 20.20, the “Post Gtt 15″ L Post Near” value [4, 10] was 20.15 and 20.25 and the “Post Gtt 15″ R Post Dist” value [4, 10] was 20.15 and 20.20. For the same molecule, the “Post Gtt 15″ R Post Near” value [4, 10] was 20.20 and 20.25, the “Effect” value ([4]; aceclidine 1.5% composition) was 9.00 h and 8.00 h and the “Post Gtt 15″ L Post Dist” value ([4]; aceclidine 1.5% composition) was 20.20 and 20.25 and 20.30. The “Post Gtt 15″ L Post Near” value [4, 11] was 20.15 and 20.20 and 20.30, the “Post Gtt 15″ R Post Near” value [4, 11] was 20.15 and 20.25 and 20.20 and the “Post Gtt 15″ R Post Dist” value ([4]; aceclidine 1.5% with 5.5% HPβCD, 0.75% CMC, 0.25% NaCl, 0.01% BAK) was 20.20 and 20.25. For the same molecule, the Near vision improvement [5] was “up to 3 lines of vision acuity”, the Comfort ([6]; 1.35% w/v aceclidine) was “very high” and the “Depth of Focus distance” value ([6]; 1.35% w/v aceclidine) was “excellent”. The “Depth of Focus near” value ([6]; 1.35% w/v aceclidine) was “excellent”, the Duration of stinging ([6]; 1.35% w/v aceclidine preferred embodiment) was 2 to 5 s and the “Stinging on topical instillation” value ([6]; 1.35% w/v aceclidine preferred embodiment, score out of 4.0) was 0.25. The Aceclidine remaining ([7]; 4° C., 1 month) was 93%, the Aceclidine remaining ([7]; 4° C., 2 months) was 92% and the Aceclidine remaining ([7]; 4° C., 3 months) was 88%. The Aceclidine remaining ([7]; 4° C., Initial) was 100%, the Aceclidine remaining ([7]; 25° C., 1 month) was 92% and the Aceclidine remaining ([7]; 25° C., 2 months) was 75%. For the same molecule, the Aceclidine remaining ([7]; 25° C., 3 months) was 50% and the Aceclidine remaining ([7]; 25° C., Initial) was 100%.
In the case of Brc1c(NC2=NCCN2)ccc2nccnc12 [brimonidine], the “Treated subjects with tachyphylaxis of pupil modulation” value ([8]; brimonidine 0.20% w/v topically for night vision, within four weeks of use) is given as roughly 100% and the “Patients with rebound redness” value ([8]; brimonidine 0.20% w/v twice daily) is given as 25%.
With Polysorbate 80 the “Redness 1 hr” value [9] was 0.5 and the Stinging [9] was 0.25.
In the case of poloxamer 407, the “Redness 1 hr” value [9] is reported as 1 and the Stinging [9] is reported as 0.5.
